tested on: A549 cells; experiment: Cellular proliferation/cytotoxicity assay (Alamar Blue), A549 cells; conditions: Homo sapiens, A549, 72 h, read-out: Anti-proliferative/Cytotoxic activity (A549 cells)

| SMILES | IC50 [µM] |
| --- | --- |
| Brc1cccn2c(-c3ccccc3)c(-c3ccc(CN4CCC(c5n[nH]c(-c6ccccn6)n5)CC4)cc3)nc12 [Example 25, 8-bromo-3-phenyl-2-(4-{[4-(5-pyridin-2-yl-1,2,4-triazol-3-yl)piperidin-1-yl]methyl}phenyl)imidazo[1,2-a]pyridine] | < 10 |
| c1ccc(-c2nc(C3CCN(Cc4ccc(-c5nc6ccccn6c5-c5ccncc5)cc4)CC3)n[nH]2)nc1 [Example 16, 3-pyridin-4-yl-2-(4-{[4-(5-pyridin-2-yl-1,2,4-triazol-3-yl)piperidin-1-yl]methyl}phenyl)imidazo[1,2-a]pyridine] | > 10 |
| Fc1cccc(-c2c(-c3ccc(CN4CCC(c5n[nH]c(-c6ccccn6)n5)CC4)cc3)nc3ccccn23)c1 [Example 14, 3-(3-fluorophenyl)-2-(4-{[4-(5-pyridin-2-yl-1,2,4-triazol-3-yl)piperidin-1-yl]methyl}phenyl)imidazo[1,2-a]pyridine] | < 10 |
| FC(F)(F)c1ccn2c(-c3ccccc3)c(-c3ccc(CN4CCC(c5n[nH]c(-c6ccccn6)n5)CC4)cc3)nc2n1 [Example 28, 3-phenyl-2-(4-{[4-(5-pyridin-2-yl-1,2,4-triazol-3-yl)piperidin-1-yl]methyl}phenyl)-7-(trifluoromethyl)imidazo[1,2-a]pyrimidine] | > 10 |
| CSc1nn2c(-c3ccccc3)c(-c3ccc(CN4CCC(c5nnc(-c6ccccn6)[nH]5)CC4)cc3)nc2s1 [Example 47, 2-(methylsulfanyl)-5-phenyl-6-[4-({4-[5-(pyridin-2-yl)-4H-1,2,4-triazol-3-yl]piperidin-1-yl}methyl)phenyl]imidazo[2,1-b][1,3,4]thiadiazole] | > 10 |
| Fc1ccc(-c2c(-c3ccc(CN4CCC(c5n[nH]c(-c6ccccn6)n5)CC4)cc3)nc3ccccn23)cc1 [Example 9, 3-(4-fluorophenyl)-2-(4-{[4-(5-pyridin-2-yl-1,2,4-triazol-3-yl)piperidin-1-yl]methyl}phenyl)imidazo[1,2-a]pyridine] | < 10 |
| NC(=O)c1ccn2c(-c3ccccc3)c(-c3ccc(CN4CCC(c5n[nH]c(-c6ccccn6)n5)CC4)cc3)nc2c1 [Example 38, 3-phenyl-2-(4-{[4-(5-pyridin-2-yl-1,2,4-triazol-3-yl)piperidin-1-yl]methyl}phenyl)imidazo[1,2-a]pyridine-7-carboxamide] | > 10 |
| c1ccc(-c2nc(C3CCN(Cc4ccc(-c5nc6ncccn6c5-c5ccsc5)cc4)CC3)n[nH]2)nc1 [Example 34, 2-(4-{[4-(5-pyridin-2-yl-1,2,4-triazol-3-yl)piperidin-1-yl]methyl}phenyl)-3-(3-thienyl)imidazo[1,2-a]pyrimidine] | > 10 |
| COc1nccn2c(-c3ccccc3)c(-c3ccc(CN4CCC(c5n[nH]c(-c6ccccn6)n5)CC4)cc3)nc12 [Example 27, 8-methoxy-3-phenyl-2-(4-{[4-(5-pyridin-2-yl-1,2,4-triazol-3-yl)piperidin-1-yl]methyl}phenyl)imidazo[1,2-a]pyrazine] | < 10 |
| COc1ccc(-c2c(-c3ccc(CN4CCC(c5n[nH]c(-c6ccccn6)n5)CC4)cc3)nc3ncccn23)cc1 [Example 20, 3-(4-methoxyphenyl)-2-(4-{[4-(5-pyridin-2-yl-1,2,4-triazol-3-yl)piperidin-1-yl]methyl}phenyl)imidazo[1,2-a]pyrimidine] | > 10 |
| N#Cc1ccn2c(-c3ccccc3)c(-c3ccc(CN4CCC(c5nnc(-c6ncccn6)[nH]5)CC4)cc3)nc2c1 [Example 78, 3-phenyl-2-[4-({4-[5-(pyrimidin-2-yl)-4H-1,2,4-triazol-3-yl]piperidin-1-yl}methyl)phenyl]imidazo[1,2-a]pyridine-7-carbonitrile] | < 10 |
| Clc1nccn2c(-c3ccccc3)c(-c3ccc(CN4CCC(c5n[nH]c(-c6ccccn6)n5)CC4)cc3)nc12 [Example 26, 8-chloro-3-phenyl-2-(4-{[4-(5-pyridin-2-yl-1,2,4-triazol-3-yl)piperidin-1-yl]methyl}phenyl)imidazo[1,2-a]pyrazine] | > 10 |
| COC(O)c1cn2c(-c3ccccc3)c(-c3ccc(CN4CCC(c5n[nH]c(-c6ccccn6)n5)CC4)cc3)nc2s1 (stereo not drawn) [Example 126, methoxy[5-phenyl-6-(4-{[4-(5-pyridin-2-yl-1H-1,2,4-triazol-3-yl)piperidin-1-yl]methyl}phenyl)imidazo[2,1-b][1,3]thiazol-2-yl]methanol] | < 10 |
| c1ccc(-c2c(-c3ccc(CN4CCC(c5n[nH]c(-c6ccccn6)n5)CC4)cc3)nc3sccn23)cc1 [Example 10, 5-phenyl-6-(4-{[4-(5-pyridin-2-yl-1,2,4-triazol-3-yl)piperidin-1-yl]methyl}phenyl)imidazo[2,1-b][1,3]thiazole] | < 10 |
| c1ccc(-c2c(-c3ccc(CN4CCC(c5n[nH]c(-c6ccccn6)n5)CC4)cc3)nc3ccccn23)cc1 [Example 2, 3-phenyl-2-(4-{[4-(5-pyridin-2-yl-1H-1,2,4-triazol-3-yl)piperidin-1-yl]methyl}phenyl)imidazo[1,2-a]pyridine] | < 10 |
| Cc1cccc(-c2nnc(C3CCN(Cc4ccc(-c5nc6ncccn6c5-c5ccccc5)cc4)CC3)[nH]2)n1 [Example 63, 2-[4-({4-[5-(6-methylpyridin-2-yl)-4H-1,2,4-triazol-3-yl]piperidin-1-yl}methyl)phenyl]-3-phenylimidazo[1,2-a]pyrimidine] | > 10 |
| c1ccc(-c2nc(C3CCN(Cc4ccc(-c5nc6ncccn6c5-c5nccs5)cc4)CC3)n[nH]2)nc1 [Example 39, 2-(4-{[4-(5-pyridin-2-yl-1,2,4-triazol-3-yl)piperidin-1-yl]methyl}phenyl)-3-(1,3-thiazol-2-yl)imidazo[1,2-a]pyrimidine] | > 10 |

same assay, conditions: read-out: Anti-proliferative/Cytotoxic activity (A549 cells); A549 cells, 72 h, Alamar Blue (Resazurin)

| SMILES | IC50 [µM] |
| --- | --- |
| Cc1ccc2nc(-c3ccc(CN4CCC(c5nnc(-c6ccco6)[nH]5)CC4)cc3)c(-c3ccccc3)n2n1 [Example 92, ′2-[4-({4-[5-(2-furyl)-4H-1,2,4-triazol-3-yl]piperidin-1-yl}methyl)phenyl]-6-methyl-3-phenylimidazo[1,2-b]pyridazine] | < 10 |
| Clc1ccn2c(-c3ccccc3)c(-c3ccc(CN4CCC(c5nnc(-c6ccc[nH]6)[nH]5)CC4)cc3)nc2c1 [Example 107, ′7-chloro-3-phenyl-2-[4-({4-[5-(1H-pyrrol-2-yl)-4H-1,2,4-triazol-3-yl]piperidin-1-yl}methyl)phenyl]imidazo[1,2-a]pyridine] | < 10 |
| c1ccc(-c2c(-c3ccc(CN4CCC(c5nnc(-c6ncccn6)[nH]5)CC4)cc3)nc3scnn23)cc1 [Example 82, ′5-phenyl-6-(4-{[4-(5-pyrimidin-2-yl-4H-1,2,4-triazol-3-yl)piperidin-1-yl]methyl}phenyl)imidazo[2,1-b][1,3,4]thiadiazole] | < 10 |
| c1ccc(-c2c(-c3ccc(CN4CCC(c5nnc(-c6cccs6)[nH]5)CC4)cc3)nc3ccccn23)cc1 [Example 97, ′3-phenyl-2-[4-({4-[5-(2-thienyl)-4H-1,2,4-triazol-3-yl]piperidin-1-yl}methyl)phenyl]imidazo[1,2-a]pyridine] | < 10 |
| c1ccc(-c2c(-c3ccc(CN4CCC(c5nnc(-c6ccco6)[nH]5)CC4)cc3)nc3ncccn23)cc1 [Example 95, ′2-[4-({4-[5-(2-furyl)-4H-1,2,4-triazol-3-yl]piperidin-1-yl}methyl)phenyl]-3-phenylimidazo[1,2-a]pyrimidine] | > 10 |
| Cc1ccc2nc(-c3ccc(CN4CCC(c5nnc(-c6cccs6)[nH]5)CC4)cc3)c(-c3ccccc3)n2n1 [Example 99, ′6-methyl-3-phenyl-2-[4-({4-[5-(2-thienyl)-4H-1,2,4-triazol-3-yl]piperidin-1-yl}methyl)phenyl]imidazo[1,2-b]pyridazine] | < 10 |
| N#Cc1ccn2c(-c3ccccc3)c(-c3ccc(CN4CCC(c5nnc(-c6cccs6)[nH]5)CC4)cc3)nc2c1 [Example 102, ′3-phenyl-2-[4-({4-[5-(2-thienyl)-4H-1,2,4-triazol-3-yl]piperidin-1-yl}methyl)phenyl]imidazo[1,2-a]pyridine-7-carbonitrile] | < 10 |
| Cc1ccc(-c2nnc(C3CCN(Cc4ccc(-c5nc6scnn6c5-c5ccccc5)cc4)CC3)[nH]2)nc1 [Example 74, ′6-[4-({4-[5-(5-methylpyridin-2-yl)-4H-1,2,4-triazol-3-yl]piperidin-1-yl}methyl)phenyl]-5-phenylimidazo[2,1-b][1,3,4]thiadiazole] | < 10 |
| N#Cc1ccn2c(-c3ccccc3)c(-c3ccc(CN4CCC(c5nnc(-c6nccs6)[nH]5)CC4)cc3)nc2c1 [Example 89, ′3-phenyl-2-[4-({4-[5-(1,3-thiazol-2-yl)-4H-1,2,4-triazol-3-yl]piperidin-1-yl}methyl)phenyl]imidazo[1,2-a]pyridine-7-carbonitrile] | < 10 |
| N#Cc1ccn2c(-c3ccccc3)c(-c3ccc(CN4CCC(c5noc(-c6ccccn6)n5)CC4)cc3)nc2c1 [Example 115, ′3-phenyl-2-(4-{[4-(5-pyridin-2-yl-1,2,4-oxadiazol-3-yl)piperidin-1-yl]methyl}phenyl)imidazo[1,2-a]pyridine-7-carbonitrile] | > 10 |
| N#Cc1ccn2c(-c3ccccc3)c(-c3ccc(CN4CCC(c5nc(-c6ccncc6)n[nH]5)CC4)cc3)nc2c1 [Example 57, ′3-phenyl-2-(4-{[4-(3-pyridin-4-yl-1H-1,2,4-triazol-5-yl)piperidin-1-yl]methyl}phenyl)imidazo[1,2-a]pyridine-7-carbonitrile] | < 10 |
| c1ccc(-c2c(-c3ccc(CN4CCC(c5nnc(-c6ccco6)[nH]5)CC4)cc3)nc3scnn23)cc1 [Example 94, ′6-[4-({4-[5-(2-furyl)-4H-1,2,4-triazol-3-yl]piperidin-1-yl}methyl)phenyl]-5-phenylimidazo[2,1-b][1,3,4]thiadiazole] | < 10 |
| Cc1ccc(-c2nnc(C3CCN(Cc4ccc(-c5nc6cc(C#N)ccn6c5-c5ccccc5)cc4)CC3)[nH]2)nc1 [Example 72, ′2-[4-({4-[5-(5-methylpyridin-2-yl)-4H-1,2,4-triazol-3-yl]piperidin-1-yl}methyl)phenyl]-3-phenylimidazo[1,2-a]pyridine-7-carbonitrile] | < 10 |

Reference: US9387204B2, “Fused bicyclic imidazoles” (BAYER INTELLECTUAL PROPERTY GmbH, priority 2007, dated 2016)
